In ChEMBL document CHEMBL3046644, “Biological activity of tropolone” (Biol Pharm Bull, 2003):
≈ marks a conversion by molar mass, not a printed value.

Experiments:
Tyrophagus putrescentiae [1] = test: Insecticidal activity against Tyrophagus putrescentiae assessed as mortality at 0.30 g/m'2 after 24 hr by clip method; format: functional
Tyrophagus putrescentiae [2] = test: Insecticidal activity against Tyrophagus putrescentiae assessed as mortality at 0.50 g/m'2 after 24 hr by clip method; format: functional
Tyrophagus putrescentiae [3] = test: Insecticidal activity against Tyrophagus putrescentiae assessed as mortality at 0.10 g/m'2 after 24 hr by clip method; format: functional
Tyrophagus putrescentiae [4] = test: Insecticidal activity against Tyrophagus putrescentiae assessed as mortality at 0.20 g/m'2 after 24 hr by clip method; format: functional
Tyrophagus putrescentiae [5] = test: Insecticidal activity against Tyrophagus putrescentiae assessed as mortality at 0.40 g/m'2 after 24 hr by clip method; format: functional
Coptotermes formosanus [6] = test: Insecticidal activity against Coptotermes formosanus assessed as mortality at 0.050 g/m'2 after 24 hr; format: functional
Coptotermes formosanus [7] = test: Insecticidal activity against Coptotermes formosanus assessed as mortality at 0.200 g/m'2 after 24 hr; format: functional
Coptotermes formosanus [8] = test: Insecticidal activity against Coptotermes formosanus assessed as mortality at 0.200 g/m'2 after 48 hr; format: functional
Coptotermes formosanus [9] = test: Insecticidal activity against Coptotermes formosanus assessed as mortality at 0.100 g/m'2 after 48 hr; format: functional
Coptotermes formosanus [10] = test: Insecticidal activity against Coptotermes formosanus assessed as mortality at 0.050 g/m'2 after 48 hr; format: functional
Dermatophagoides farinae [11] = test: Insecticidal activity against Dermatophagoides farinae assessed as mortality at 0.05 g/m'2 after 24 hr by clip method; format: functional
Dermatophagoides farinae [12] = test: Insecticidal activity against Dermatophagoides farinae assessed as mortality at 0.20 g/m'2 after 24 hr by clip method; format: functional
Dermatophagoides farinae [13] = test: Insecticidal activity against Dermatophagoides farinae assessed as mortality at 0.40 g/m'2 after 24 hr by clip method; format: functional
Dermatophagoides farinae [14] = test: Insecticidal activity against Dermatophagoides farinae assessed as mortality at 0.025 g/m'2 after 24 hr by clip method; format: functional
Dermatophagoides farinae [15] = test: Insecticidal activity against Dermatophagoides farinae assessed as mortality at 0.30 g/m'2 after 24 hr by clip method; format: functional
Dermatophagoides farinae [16] = test: Insecticidal activity against Dermatophagoides farinae assessed as mortality at 0.50 g/m'2 after 24 hr by clip method; format: functional
Dermatophagoides farinae [17] = test: Insecticidal activity against Dermatophagoides farinae assessed as mortality at 0.10 g/m'2 after 24 hr by clip method; format: functional
Colletotrichum lagenaria = test: Antifungal activity against Colletotrichum lagenaria after 15 days by agar dilution method; format: functional; conditions: 360 h
[18] = test system: Colletotrichum orbiculare; test: Antifungal activity against Colletotrichum orbiculare MAFF 306518 after 15 days by agar dilution method; format: functional; conditions: MAFF 306518, 360 h
Phomopsis obscurans = test: Antifungal activity against Phomopsis obscurans MAFF 744018 after 15 days by agar dilution method; format: functional; conditions: Paraphomopsis obscurans, MAFF 744018, 360 h
Botrytis cinerea = test: Antifungal activity against Botryotinia fuckeliana IFO 30915 after 15 days by agar dilution method; format: functional; conditions: IFO 30915, 360 h
Fusarium solani = test: Antifungal activity against Fusarium solani IFO 9955 after 15 days by agar dilution method; format: functional; conditions: IFO 9955, 360 h
Pythium aphanidermatum = test: Antifungal activity against Pythium aphanidermatum IFO 32440 after 15 days by agar dilution method; format: functional; conditions: IFO 32440, 360 h
Thanatephorus cucumeris = test: Antifungal activity against Thanatephorus cucumeris IFO 30445 after 15 days by agar dilution method; format: functional; conditions: IFO 30445, 360 h
Thermolysin = target: T1, Thermolysin (Bacillus thermoproteolyticus, UniProt P00800); test: Inhibition of Bacillus thermoproteolyticus thermolysin after 15 min
T1 sequence (P00800 whole entry): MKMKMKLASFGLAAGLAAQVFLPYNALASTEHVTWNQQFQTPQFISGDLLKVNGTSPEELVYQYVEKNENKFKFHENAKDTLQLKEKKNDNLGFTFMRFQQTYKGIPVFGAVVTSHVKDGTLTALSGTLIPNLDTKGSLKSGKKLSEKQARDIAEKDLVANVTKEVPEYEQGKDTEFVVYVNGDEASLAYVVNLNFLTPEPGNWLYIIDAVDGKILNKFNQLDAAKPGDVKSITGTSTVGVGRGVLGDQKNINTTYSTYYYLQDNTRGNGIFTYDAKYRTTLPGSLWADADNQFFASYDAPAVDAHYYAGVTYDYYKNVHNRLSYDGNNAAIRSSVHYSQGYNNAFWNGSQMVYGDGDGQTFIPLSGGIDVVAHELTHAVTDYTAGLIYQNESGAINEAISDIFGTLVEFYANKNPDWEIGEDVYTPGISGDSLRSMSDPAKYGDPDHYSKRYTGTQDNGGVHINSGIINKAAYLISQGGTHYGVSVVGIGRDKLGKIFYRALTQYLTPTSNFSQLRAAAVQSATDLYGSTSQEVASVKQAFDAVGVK

Coptotermes formosanus [19] = test: Insecticidal activity against Coptotermes formosanus assessed as mortality at 0.025 g/m'2 after 24 hr; format: functional
Coptotermes formosanus [20] = test: Insecticidal activity against Coptotermes formosanus assessed as mortality at 0.100 g/m'2 after 24 hr; format: functional
Collagenase ColG = target: T2, Collagenase ColG (Clostridium histolyticum, UniProt Q9X721); test: Inhibition of Clostridium histolyticum collagenase after 15 min; set-up: species or system Hathewaya histolytica
T2 sequence (Q9X721 whole entry): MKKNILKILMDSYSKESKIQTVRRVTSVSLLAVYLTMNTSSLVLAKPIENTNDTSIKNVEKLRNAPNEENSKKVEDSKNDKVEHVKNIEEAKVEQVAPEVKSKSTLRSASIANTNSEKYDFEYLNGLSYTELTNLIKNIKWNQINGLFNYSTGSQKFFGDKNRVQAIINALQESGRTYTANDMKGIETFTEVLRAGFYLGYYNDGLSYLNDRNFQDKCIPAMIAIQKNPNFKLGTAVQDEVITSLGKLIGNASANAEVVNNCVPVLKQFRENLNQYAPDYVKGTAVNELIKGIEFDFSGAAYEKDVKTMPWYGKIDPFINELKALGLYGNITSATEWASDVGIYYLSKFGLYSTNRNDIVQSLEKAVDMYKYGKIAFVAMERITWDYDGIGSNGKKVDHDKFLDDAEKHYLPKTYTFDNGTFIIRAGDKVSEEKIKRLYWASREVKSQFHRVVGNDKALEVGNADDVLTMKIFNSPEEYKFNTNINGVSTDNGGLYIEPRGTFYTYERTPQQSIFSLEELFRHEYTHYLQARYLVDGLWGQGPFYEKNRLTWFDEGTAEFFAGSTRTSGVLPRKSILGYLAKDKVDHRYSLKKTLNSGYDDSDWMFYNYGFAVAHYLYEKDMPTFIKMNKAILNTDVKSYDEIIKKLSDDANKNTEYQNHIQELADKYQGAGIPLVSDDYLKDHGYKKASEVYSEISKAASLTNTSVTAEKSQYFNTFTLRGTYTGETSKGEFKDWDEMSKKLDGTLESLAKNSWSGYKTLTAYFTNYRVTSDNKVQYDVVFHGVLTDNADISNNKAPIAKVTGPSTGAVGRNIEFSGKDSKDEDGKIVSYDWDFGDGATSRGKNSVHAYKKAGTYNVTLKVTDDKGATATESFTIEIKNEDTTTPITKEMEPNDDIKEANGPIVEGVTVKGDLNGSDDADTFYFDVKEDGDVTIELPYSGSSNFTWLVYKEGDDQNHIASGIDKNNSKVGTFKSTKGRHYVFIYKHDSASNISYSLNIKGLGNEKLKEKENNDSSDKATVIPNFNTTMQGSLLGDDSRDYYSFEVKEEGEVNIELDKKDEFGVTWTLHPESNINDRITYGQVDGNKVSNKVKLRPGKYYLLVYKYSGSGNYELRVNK

Carboxypeptidase A1 = target: T3, Carboxypeptidase A1 (Bos taurus, UniProt P00730); test: Inhibition of Bos taurus (bovine) pancrease carboxypeptidase A after 15 min
T3 sequence (P00730 whole entry): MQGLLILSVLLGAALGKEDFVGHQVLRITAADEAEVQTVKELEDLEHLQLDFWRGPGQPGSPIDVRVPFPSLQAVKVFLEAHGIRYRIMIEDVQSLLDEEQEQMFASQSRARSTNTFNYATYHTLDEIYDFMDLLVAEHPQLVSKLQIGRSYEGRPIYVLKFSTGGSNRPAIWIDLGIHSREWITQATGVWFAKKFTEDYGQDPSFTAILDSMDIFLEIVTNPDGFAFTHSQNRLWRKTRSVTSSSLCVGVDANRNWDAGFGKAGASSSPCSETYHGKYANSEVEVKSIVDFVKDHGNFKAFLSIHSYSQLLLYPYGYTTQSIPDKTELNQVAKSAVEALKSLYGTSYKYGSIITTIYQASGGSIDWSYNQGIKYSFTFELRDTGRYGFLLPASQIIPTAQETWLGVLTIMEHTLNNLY

Coptotermes formosanus [21] = test: Insecticidal activity against Coptotermes formosanus assessed as mortality; format: functional
Tyrophagus putrescentiae [22] = test: Insecticidal activity against Tyrophagus putrescentiae assessed as mortality after 24 hr by clip method; format: functional
Dermatophagoides farinae [23] = test: Insecticidal activity against Dermatophagoides farinae assessed as mortality after 24 hr by clip method; format: functional
Coptotermes formosanus [24] = test: Insecticidal activity against Coptotermes formosanus assessed as mortality at 0.025 g/m'2 after 48 hr; format: functional

Compound: CC(C)c1cccc(=O)c(O)c1 [HINOKITIOL]
- mortality (Tyrophagus putrescentiae [1]): 55.5%
- mortality (Tyrophagus putrescentiae [2]): 91.3%
- mortality (Tyrophagus putrescentiae [3]): 11.9%
- mortality (Tyrophagus putrescentiae [4]): 33.6%
- mortality (Tyrophagus putrescentiae [5]): 77.5%
- mortality (Coptotermes formosanus [6]): 40%
- mortality (Coptotermes formosanus [7]): 100%
- mortality (Coptotermes formosanus [8]): 100%
- mortality (Coptotermes formosanus [9]): 100%
- mortality (Coptotermes formosanus [10]): 50%
- mortality (Dermatophagoides farinae [11]): 18.8%
- mortality (Dermatophagoides farinae [12]): 96.3%
- mortality (Dermatophagoides farinae [13]): 100%
- mortality (Dermatophagoides farinae [14]): 7.8%
- mortality (Dermatophagoides farinae [15]): 100%
- mortality (Dermatophagoides farinae [16]): 100%
- mortality (Dermatophagoides farinae [17]): 45.2%
- MIC (Colletotrichum lagenaria): 25 µg/mL (≈ 152 µM)
- MIC [18]: 25 µg/mL (≈ 152 µM)
- MIC (Phomopsis obscurans): 12 µg/mL (≈ 73.1 µM)
- MIC (Botrytis cinerea): 50 µg/mL (≈ 304 µM)
- MIC (Fusarium solani): 50 µg/mL (≈ 304 µM)
- MIC (Pythium aphanidermatum): 12 µg/mL (≈ 73.1 µM)
- MIC (Thanatephorus cucumeris): 12 µg/mL (≈ 73.1 µM)
- IC50 (Thermolysin): 61 µM
- mortality (Coptotermes formosanus [19]): 10%
- mortality (Coptotermes formosanus [20]): 50%
- IC50 (Collagenase ColG): 24 µM
- IC50 (Carboxypeptidase A1): 2.76 µM
- LC50 (Coptotermes formosanus [21]): 0.08 g/m2
- LC50 (Tyrophagus putrescentiae [22]): 0.24 g/m2
- LC50 (Dermatophagoides farinae [23]): 0.37 g/m2
- mortality (Coptotermes formosanus [24]): 20%
